Laboratory results taken from ChEMBL document CHEMBL1140305, “Three-dimensional quantitative structure-activity relationship analyses of beta-lactam antibiotics and tripeptides as substrates of the mammalian H+/peptide cotransporter PEPT1” (J Med Chem, 2005).
Non-standard residues stand in square brackets, D forms with d. Residues, ends and D or L forms follow the SMILES beside them. *: point of attachment. Bip = N[C@@H](Cc1ccc(-c2ccccc2)cc1)C(=O)O; NMeT = CN[C@H](C(=O)O)[C@@H](C)O; OBn = c1ccc(CO*)cc1; Bn = c1ccc(C*)cc1

These compounds were tested against T1, Solute carrier family 15 member 1 (Homo sapiens, UniProt P46059) (assay: Binding affinity against membrane transport protein PEPT1 in human Caco-2 cells). Conditions: not given.
T1 sequence (P46059 whole entry): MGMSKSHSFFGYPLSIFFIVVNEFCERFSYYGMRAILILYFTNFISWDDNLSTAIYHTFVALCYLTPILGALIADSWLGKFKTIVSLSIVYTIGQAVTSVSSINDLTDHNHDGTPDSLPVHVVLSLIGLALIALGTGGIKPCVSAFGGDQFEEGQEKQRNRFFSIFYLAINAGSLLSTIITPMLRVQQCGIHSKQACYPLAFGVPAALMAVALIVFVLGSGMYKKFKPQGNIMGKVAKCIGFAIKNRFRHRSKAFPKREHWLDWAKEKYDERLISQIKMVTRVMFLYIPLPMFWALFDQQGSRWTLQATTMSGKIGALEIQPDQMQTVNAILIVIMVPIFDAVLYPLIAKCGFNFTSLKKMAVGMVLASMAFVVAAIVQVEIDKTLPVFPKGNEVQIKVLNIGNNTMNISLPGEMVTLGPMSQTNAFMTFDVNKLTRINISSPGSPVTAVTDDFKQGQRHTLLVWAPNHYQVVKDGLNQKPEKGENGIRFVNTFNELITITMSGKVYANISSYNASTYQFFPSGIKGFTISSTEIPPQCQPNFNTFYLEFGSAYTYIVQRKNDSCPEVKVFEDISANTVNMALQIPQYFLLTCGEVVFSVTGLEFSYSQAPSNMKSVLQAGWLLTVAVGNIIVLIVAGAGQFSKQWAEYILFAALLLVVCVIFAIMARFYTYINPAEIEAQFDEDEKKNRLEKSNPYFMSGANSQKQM
Type: cell-based

| Compound | Ki |
| --- | --- |
| [N-]=[N+]=N[C@H](C(=O)NC1C(=O)N2C(C(=O)O)=CCSC12)c1ccccc1 (stereo partly specified) | 15000 µM |
| C[C@H](N)C(=O)N[C@@H](C)C(=O)N[C@H](C)C(=O)O | 8300 µM |
| C[C@@H](N)C(=O)N[C@H](CCCCN)C(=O)O | > 30000 µM |
| C[C@H](N)C(=O)NC(=O)C1CCCCC1 | 1500 µM |
| C[C@H](N)C(=O)N[C@H](CCCCN)C(=O)O | > 30000 µM |
| C[C@H](N)C(=O)N[C@H](Cc1ccccc1)C(=O)N[C@@H](C)C(=O)O | 19000 µM |
| C[C@H](N)C(=O)N[C@H](C)C(=O)N[C@@H](C)C(=O)O | 17000 µM |
| C[C@H](NC(=O)[C@H](C)NOC(=O)[C@@H](C)N)C(=O)O | 7900 µM |
| C[C@@H](N)C(=O)N[C@@H](CCCCN)C(=O)O | 7000 µM |
| C[C@@H](N)C(=O)N1CCC[C@H]1C(=O)O | 5000 µM |
| NCC(=O)N[C@@H](Cc1c[nH]cn1)C(=O)O (H-Gly-His-OH) | 4100 µM |
| C[C@H](NC(=O)[C@@H](N)CCCCN)C(N)=O (H-Lys-Ala-NH2) | 6400 µM |
| NCCCC[C@H](N)C(=O)N[C@@H](CCC(=O)O)C(=O)O (H-Lys-Glu-OH) | 1300 µM |
| N=C(N)NCCC[C@H](NC(=O)[C@@H]1CCCN1)C(=O)O (H-Pro-Arg-OH) | 2500 µM |
| O=C(O)CNC(=O)CNC(=O)[C@@H]1CCCN1 (H-Pro-Gly-Gly-OH) | 16000 µM |
| NCCCC[C@H](NC(=O)[C@H](Cc1ccccc1)NC(=O)[C@@H]1CCCN1)C(=O)O (H-Pro-Phe-Lys-OH) | 2000 µM |
| O=C(O)[C@@H]1CCCN1C(=O)[C@@H]1CCCN1 (H-Pro-Pro-OH) | 1200 µM |

| Compound | Ki |
| --- | --- |
| N[C@@H](Cc1ccc(O)cc1)C(=O)NCC(=O)NCC(=O)O (H-Tyr-Gly-Gly-OH) | 350 µM |
| CC[C@H](C)[C@H](NC(=O)[C@@H]1CCCN1C(=O)[C@@H](N)Cc1ccc(O)cc1)C(=O)O (H-Tyr-Pro-Ile-OH) | 250 µM |
| C[C@@H](NC(=O)[C@@H](N)Cc1ccc(O)cc1)C(=O)NCC(=O)O (H-Tyr-[dA]-Gly-OH) | 14000 µM |
| CC(C)C[C@@H](N)C(=O)NCC(=O)NCC(=O)O (H-[dL]-Gly-Gly-OH) | 25000 µM |
| CC(C)[C@H](NC(=O)[C@H](N)Cc1ccc(O)cc1)C(=O)NCC(=O)O (H-[dY]-Val-Gly-OH) | 14000 µM |
| C[C@H](N)C(=O)N1CCCC1C(=O)O (single isomer, unassigned) | 15000 µM |
| C[C@H](N)C(=O)N[C@@H](C)C(=O)O (stereo in doubt; 47) | 2100 µM |
| O=C(O)C[C@H](NC(=O)[C@@H]1CCCN1)C(=O)O (stereo in doubt; 64) | 9800 µM |
| Cc1nnc(SCC2=C(C(=O)O)N3C(=O)[C@@H](NC(=O)Cn4cnnn4)[C@H]3SC2)s1 [CEFAZOLIN] | > 30000 µM |
| CO[C@@]1(NC(=O)Cc2cccs2)C(=O)N2C(C(=O)O)=C(COC(N)=O)CS[C@@H]21 [CEFOXITIN] | 10000 µM |
| COCC1=C(C(=O)O)N2C(=O)[C@@H](NC(=O)/C(=N\OC)c3csc(N)n3)[C@H]2SC1 [CEFPODOXIME] | > 30000 µM |
| CC1=C(C(=O)O)N2C(=O)[C@@H](NC(=O)[C@H](N)C3=CCC=CC3)[C@H]2SC1 [CEPHRADINE] | 9800 µM |
| Cc1onc(-c2ccccc2Cl)c1C(=O)N[C@@H]1C(=O)N2[C@@H]1SC(C)(C)[C@@H]2C(=O)O [CLOXACILLIN] | 2500 µM |
| Cc1onc(-c2c(F)cccc2Cl)c1C(=O)N[C@@H]1C(=O)N2[C@@H]1SC(C)(C)[C@@H]2C(=O)O [FLOXACILLIN] | 3200 µM |
| CC1(C)S[C@@H]2[C@H](NC(=O)COc3ccccc3)C(=O)N2[C@H]1C(=O)O [PENICILLIN V] | 21000 µM |
| CCN1CCN(C(=O)N[C@@H](C(=O)N[C@@H]2C(=O)N3[C@@H]2SC(C)(C)[C@@H]3C(=O)O)c2ccccc2)C(=O)C1=O [PIPERACILLIN] | > 30000 µM |

Continued, values first:

| Ki | Compound |
| --- | --- |
| 1100 µM | C[C@@H](O)[C@H](N)C(=O)N[C@@H](CCCCN)C(=O)N[C@@H](Cc1ccc(O)cc1)C(=O)O (H-Thr-Lys-Tyr-OH) |
| 860 µM | NCCCC[C@H](NC(=O)[C@@H](N)CC(=O)O)C(=O)O (H-Asp-Lys-OH) |
| 520 µM | CSCC[C@H](NC(=O)[C@H](CCSC)NC(=O)[C@@H](N)CCSC)C(=O)O (stereo in doubt; 119) |
| 510 µM | NCCCC[C@H](NC(=O)[C@@H](N)CCC(=O)O)C(=O)O (H-Glu-Lys-OH) |
| 390 µM | CC(C)C[C@H](N)C(=O)NCC(=O)NCC(=O)O (H-Leu-Gly-Gly-OH) |
| 340 µM | C[C@H](NC(=O)[C@@H](N)CCCCN)C(=O)O (H-Lys-Ala-OH) |
| 300 µM | CC(C)C[C@H](N)C(=O)N[C@@H](CCCN=C(N)N)C(=O)N1CCC[C@H]1C(=O)O (H-Leu-Arg-Pro-OH) |
| 240 µM | N[C@@H](Cc1c[nH]c2ccccc12)C(=O)NCC(=O)N[C@@H](Cc1ccc(O)cc1)C(=O)O |
| 210 µM | C[C@H](N)C(=O)N[C@@H](CCCCN)C(=O)O |
| 200 µM | N[C@@H](CCC(=O)O)C(=O)N[C@@H](Cc1ccccc1)C(=O)N[C@@H](Cc1ccc(O)cc1)C(=O)O (H-Glu-Phe-Tyr-OH) |
| 200 µM | CC[C@H](C)[C@H](N)C(=O)N[C@H](C(=O)N[C@@H](Cc1ccc(O)cc1)C(=O)O)C(C)C (H-Ile-Val-Tyr-OH) |
| 180 µM | C[C@H](N)C(=O)N[C@@H](C)C(=O)N[C@@H](C)C(=O)O |
| 180 µM | CC(C)C[C@H](N)C(=O)N1CCC[C@H]1C(=O)O (H-Leu-Pro-OH) |
| 170 µM | N[C@@H](Cc1c[nH]c2ccccc12)C(=O)N[C@@H](Cc1c[nH]c2ccccc12)C(=O)N[C@@H](Cc1c[nH]c2ccccc12)C(=O)O (H-Trp-Trp-Trp-OH) |
| 160 µM | C[C@H](NC(=O)[C@@H](N)Cc1c[nH]c2ccccc12)C(=O)O (H-Trp-Ala-OH) |
| 150 µM | CC(C)C[C@H](NC(=O)[C@@H]1CCCN1C(=O)[C@H](C)N)C(=O)O (H-Ala-Pro-Leu-OH) |

| Ki | Compound |
| --- | --- |
| 140 µM | CC(C)C[C@H](NC(=O)[C@H](CC(C)C)NC(=O)[C@@H](N)Cc1ccccc1)C(=O)O (H-Phe-Leu-Leu-OH) |
| 140 µM | N[C@@H](Cc1ccc(O)cc1)C(=O)N[C@@H](Cc1ccccc1)C(=O)O (H-Tyr-Phe-OH) |
| 140 µM | CC(C)C[C@H](NC(=O)[C@H](C)NC(=O)[C@@H](N)C(C)C)C(=O)O (H-Val-Ala-Leu-OH) |
| 140 µM | C[C@H](N)C(=O)N[C@@H](C)C(=O)O (stereo in doubt; 110) |
| 120 µM | CC[C@H](C)[C@H](N)C(=O)N[C@@H](Cc1ccc(O)cc1)C(=O)O (H-Ile-Tyr-OH) |
| 110 µM | CC(C)C[C@H](N)C(=O)N[C@@H](C)C(=O)N[C@@H](CCCNC(=N)N)C(=O)O (H-Leu-Ala-Arg-OH) |
| 110 µM | CC(C)C[C@H](NC(=O)[C@H]([C@@H](C)O)N(C)C(=O)[C@@H](N)CC(C)C)C(=O)O (H-Leu-[NMeT]-Leu-OH) |
| 100 µM | CC(C)C[C@H](NC(=O)[C@H](Cc1ccccc1)NC(=O)[C@H](C)N)C(=O)O (H-Ala-Phe-Leu-OH) |
| 100 µM | CC(C)C[C@H](N)C(=O)N1CCC[C@H]1C(=O)N[C@@H](CCCN=C(N)N)C(=O)O (H-Leu-Pro-Arg-OH) |
| 100 µM | CSCC[C@H](NC(=O)[C@H](CCSC)NC(=O)[C@@H](N)CCSC)C(=O)O (stereo in doubt; 10) |
| 90 µM | C[C@H](NC(=O)[C@@H](N)Cc1ccc(OCc2ccccc2)cc1)C(=O)O |
| 90 µM | C[C@H](NC(=O)[C@@H](N)CC(=O)OCc1ccccc1)C(=O)O (H-Asp(OBn)-Ala-OH) |
| 90 µM | C[C@H](NC(=O)[C@@H](N)COCc1ccccc1)C(=O)O (H-Ser(Bn)-Ala-OH) |
| 20 µM | C[C@H](NC(=O)[C@H](Cc1ccccc1)NCc1ccccc1)C(=O)O |
| 10 µM | C[C@H](NC(=O)[C@@H](N)Cc1ccc(-c2ccccc2)cc1)C(=O)O (H-[Bip]-Ala-OH) |

Same assay, conditions: caco-2

| Ki | Compound |
| --- | --- |
| 4300 µM | CC(C)[C@H](N)C(=O)N1CCC[C@H]1C(=O)N1CCC[C@@H]1C(=O)O |
| 9800 µM | O=C(O)C[C@H](NC(=O)[C@@H]1CCCN1)C(=O)O (stereo in doubt; 121) |
